Data as given in patent US20050239751A1, “Heterocyclic anti-viral compounds comprising metabolizable moieties and their uses” (Rigel Pharmaceuticals, Inc., priority 2004, published 2005).

test system: HCV replicon in 5-2 Luc replicon-comprising cells; assay: HCV replicon assay (luciferase; HEPC_REPLICON-LUC); type: cell-based, Hepatitis C virus; details: Hepatitis C virus; Tables 3-12; 50% reduction in luciferase emission, 5-2 Luc replicon cells; read-out: Replicon (IC50)
Text: In one embodiment, the inhibitory activity of the metabolically active agent of the prodrug can be confirmed in a replicon assay that assesses the ability of a test compound to block or inhibit HCV replication in replicon cells. One example of a suitable replicon assay is the liver cell-line Huh 7-based replicon assay described in Lohmann et al., 1999, Science 285:110-113. A specific example of this replicon assay which utilizes luciferase translation is provided in the Examples Section. In one embodiment of this assay, the amount of test prodrug that yields a 50% reduction in translation as compared to a control cell (IC50) may be determined.
The inhibitory activity of certain prodrugs of the invention, which may inhibit HCV translation or replication prior to metablism and/or are metabolized into active agents, was confirmed using an HCV replicon assay. The HCV replicon can include such features as the HCV 5′ untranslated region including the HCV IRES, the HCV 3′ untranslated region, selected HCV genes encoding HCV polypeptides, selectable markers, and a reporter gene such as luciferase, GFP, etc. In the assay, actively dividing 5-2 Luc replicon-comprising cells (obtained from Ralf Bartenschlager; see Lohmann et al., 1999, Science 285:110-113) were seeded at a density of between about 5,000 and 7,500 cells/well onto 96 well plates (about 90 µl of cells per well) and incubated at 37° C. and 5% CO2 for 24 hours. Then, the test prodrug (in a volume of about 10 PI) was added to the wells at various concentrations and the cells were incubated for an additional 24-48 hours before luciferase assay. The media was aspirated from each well and Bright-Glo (Promega, Madison, WI) luciferase assay reagents were added to each well according to the manufacturer's instructions. Briefly, the BrightGlo reagent was diluted 1:1 with PBS and 100 µl of diluted reagent was added to each well. After 5 min of incubation at room temperature, luciferin emission was quantified with a luminometer. In this assay, the amount of test prodrug that yielded a 50% reduction in luciferase emission (IC50) was determined. This IC50 value may represent the antiviral activity of the prodrug itself, the activity of prodrug transformed into its active metabolized form, or a combination of the two.
In TABLES 3 through 12, a value of “+” indicates an IC50 of 10 μM or less in the specified assay; a value of “−” indicates an IC50 of greater than 10 μM in the specified assay.

`COC(=O)C(Cl)(Cl)C(=O)Nc1cccc(-c2cc(-c3c(Cl)cccc3Cl)no2)c1` [Cpd. 18] and `CC(=O)C(Cl)(Cl)C(=O)Nc1cccc(-c2cc(-c3c(Cl)cccc3Cl)no2)c1` [Cpd. 10] cannot be ordered by IC50: ≤ 10 µM for the first, > 10 µM for the second.

`O=C(Nc1ccnc(-c2cc(-c3c(Cl)cccc3Cl)no2)c1)C(Cl)(Cl)C(=O)OC1CCCCC1` [compound 23] and `O=C(Nc1cccc(-c2cc(-c3c(Cl)cccc3Cl)no2)c1)C(Cl)(Cl)C(=O)OC1CCCCC1` [Cpd. 13, 2′,2′-dichloro-2′-(cyclohexyloxycarbony)-N-[3-[3-(2,6-dichlorophenyl)-5-isoxazoyl]phenyl] acetamide] cannot be ordered by IC50: ≤ 10 µM for the first, ≤ 10 µM for the second.

`CC(C)c1oc(=O)oc1CN(C(=O)C(Cl)Cl)c1ccnc(-c2cc(-c3c(Cl)cccc3Cl)no2)c1` [Cpd. 42, 2,2-dichloro-N-[2′-[3′-(2′,6′-dichlorophenyl)-5′-isoxazoyl](4-pyridyl)]N-[(5-i-propyl-1,3-dioxolene-2-one4-yl)methylene] acetamide] and `CCCCCc1oc(=O)oc1CN(C(=O)C(Cl)Cl)c1ccnc(-c2cc(-c3c(Cl)cccc3Cl)no2)c1` [Cpd. 43, 2,2-dichloro-N-[2′-[3′-(2′,6′-dichlorophenyl)-5′-isoxazoyl](4pyridyl)]N-[(5-n-pentyl-1,3-dioxolene-2-one4yl)methylene] acetamide] cannot be ordered by IC50: ≤ 10 µM for the first, ≤ 10 µM for the second.

`O=C(C(Cl)Cl)N(Cc1oc(=O)oc1C1CCCCC1)c1cccc(-c2cc(-c3c(Cl)cccc3Cl)no2)c1` [Cpd. 39, 2,2-dichloro-N-[3′-[3′-(2′,6′-dichlorophenyl)-5′-isoxazoyl]phenyl]-N-[(5-cyclohexyl-1,3-dioxolene-2-one4-yl)methylene] acetamide] and `CCOC(=O)c1oc(=O)oc1CN(C(=O)C(Cl)Cl)c1cccc(-c2cc(-c3c(Cl)cccc3Cl)no2)c1` [Cpd. 44] cannot be ordered by IC50: ≤ 10 µM for the first, > 10 µM for the second.

In the case of `CC(C)(C)OC(=O)C(Cl)(Cl)C(=O)Nc1cccc(-c2cc(-c3c(Cl)cccc3Cl)no2)c1` [Cpd. 15], the IC50 is reported as ≤ 10 µM.

same assay, conditions: Table 15; read-out: Replicon (IC50)

`O=C(CCCN(C(=O)C(Cl)Cl)c1cccc(-c2cc(-c3c(Cl)cccc3Cl)no2)c1)c1ccccc1` [107a] and “2′,2′-Dichloro-N-[3-[3-(2,6-dichlorophenyl)-5-isoxazolyl]phenyl]-N-[2-(benzoyl)ethyl] Acetamide [Cpd. 102a]” cannot be ordered by IC50: ≤ 10 µM for the first, ≤ 10 µM for the second.

“2′,2′-Dichloro-N-[3-[3-(2,6-dichlorophenyl)-5-isoxazolyl]-4-(pyridyl)]-N-[2-(4-fluorobenzoyl)ethyl] Acetamide [126a]” and “2′,2′-Dichloro-N-[3-[3-[2-chloro-6-(N′-acetyl-4piperdinyloxy)phenyl]-5-isoxazolyl]phenyl]-N-[2-(4-fluorobenzoyl)ethyl] Acetamide [Cpd. 127a]” cannot be ordered by IC50: ≤ 10 µM for the first, ≤ 10 µM for the second.

“2′,2′-Dichloro-N-[3-[3-(2-chloro-6-tbutoxycarbonylphenyl)-5-isoxazolyl]phenyl]N-[2-(4-fluorobenzoyl)ethyl] Acetamide [Cpd. 128a]” and “2′,2′-Dichloro-N-[3-[3-(2-chloro-6-hydroxycarbonylphenyl)-5-isoxazolyl]phenyl]-N-[2-(4-fluorobenzoyl)ethyl] Acetamide [Cpd. 129a]” cannot be ordered by IC50: ≤ 10 µM for the first, ≤ 10 µM for the second.

same assay, conditions: Tables 3-12; 50% reduction in luciferase emission, 5-2 Luc replicon cells; read-out: Replicon (IC50)

“2′-(diethoxyphosphonyl)-2′,2′-difluoro-N-[3-[3-(2,6-dichlorophenyl)-5-isoxazoyl]phenyl] acetamide [Cpd. 3]” and “2′,2′-dichloro-2′-(diethoxyphosphonyl)-N-[3-[3-(2-fluoro-6-trifluoromethylphenyl)-5-isoxazoyl]phenyl] acetamide [Cpd. 6]” cannot be ordered by IC50: > 10 µM for the first, ≤ 10 µM for the second.

“2,2-dichloro-2-(diethoxyphosphonyl)-N-[3-[3-(2,6-dichlorophenyl)-5-isoxazoyl]phenyl] acetamide [compound 405]” and “2,2-dichloro-2-(dihydroxyphosphonyl)-N-[3-[3-(2,6-dichlorophenyl)-5-isoxazoyl]phenyl] acetamide [Cpd. 407]” cannot be ordered by IC50: ≤ 10 µM for the first, > 10 µM for the second.

For “2′-chloro-2′-(diethoxyphosphonyl)-2-fluoro-N-[3-[3-(2,6-dichlorophenyl)-5-isoxazoyl]phenyl] acetamide [Cpd. 2]”, the IC50 was > 10 µM.

test system: HCV NS5A protein in 9-13 replicon cells; assay: Replicon quantitative Western blot assay (HEPC_REPLICON-ICWESTERN); type: cell-based; details: Hepatitis C virus, read-out: HEPC_REPLICON-ICWESTERN Result Value
Protocol: Alternatively, the inhibitory activity of the metabolically active agents of the prodrugs can be confirmed using a quantitative Western immunoblot assay utilizing antibodies specific for HCV non-structural proteins, such as NS3, NS4A NS5A and NS5B. In one embodiment of this assay, replicon cells are treated with varying concentrations of test prodrug to determine the concentration of the metabolically active agent of the test prodrug that yields a 50% reduction in the amount of a non-structural protein produced as compared to a control sample (IC50). A single non-structural protein may be quantified or multiple non-structural proteins may be quantified. Antibodies suitable for carrying out such immunoblot assays are available commercially (e.g., from BIODESIGN International, Saco, Me.).
Certain prodrugs of the invention, which may inhibit HCV translation or replication prior to metablism and/or are metabolized into active agents, were also tested for their ability to inhibit HCV replication using a quantitative Western blot analysis with antibodies specific for the HCV NS5A or other non-structural proteins. Actively dividing 9-13 replicon cells were seeded into 6-well plates at a density of 1×10^5 cells/well in a volume of 2 ml/well and incubated at 37° C. and 5% CO2 for 24 hours. Various concentrations of test prodrugs (in a volume of 10 ul) were added to the wells and the cells incubated for another 48 hours. Protein samples were prepared from the cultured cells, resolved on a SDS-PAGE gel and transferred to a nitrocellulose membrane. The membrane was blocked with 5% non-fat milk in PBS for 1 hour at room temperature. Primary antibody (anti NS5A antibody; BIODESIGN International, Saco, Me.) incubation was performed for 1 hour at room temperature, after which the membrane was washed 3 times (for 15 min per time) with PBST (PBS plus 0.1% Tween 20). Horseradish peroxidase conjugated secondary antibody incubation was performed for 1 hour at room temperature and the membrane was washed 3 times (for 15 min per time) with PBST. The membrane was then soaked in substrate solution (Pierce) and exposed to a film or quantified using an imager. In this assay, the amount of test prodrug that is believed to be transformed into an active agent under the given conditions that yielded a 50% reduction in the amount of NS5A protein translated as compared to a control sample (IC50) was determined.

`CCOP(=O)(OCC)Oc1ccc(CCCN(C(=O)C(Cl)Cl)c2ccnc(-c3cc(-c4c(Cl)cccc4Cl)no3)c2)cc1` [Cpd. 1038, 4-(3-(2,2-Dichloro-N-(2-(3-(2,6-dichlorophenyl)isoxazol-5-yl)pyridin-4-yl)acetamido)propyl)phenyl Diethyl Phosphate] was tested, and the IC50 was 1 to 20 µM.

same assay, conditions: Hepatitis C virus; Table 14; read-out: HEPC_REPLICON-ICWESTERN Result Value

First: O=C(C(Cl)Cl)N(CCN1CCOCC1)c1ccnc(-c2cc(-c3c(Cl)cccc3Cl)no2)c1 [Cpd. 1026, 2,2-Dichloro-N-(2-(3-(2,6-dichlorophenyl)isoxazol-5-yl)pyridin4-yl)-N-(2-morpholinoethyl)acetamide]
Second: O=C(C(Cl)Cl)N(Cc1ccc(OCCN2CCOCC2)cc1)c1ccnc(-c2cc(-c3c(Cl)cccc3Cl)no2)c1 [Cpd. 1022, 2,2-Dichloro-N-(2-(3-(2,6-dichlorophenyl)isoxazol-5-yl)pyridin-4-yl)-N-(4-(2-morpholinoethoxy)benzyl)acetamide]
The IC50 of the first is higher: > 20 µM for the first, < 1 µM for the second.

Going from `CCN1CCN(c2ccc(CN(C(=O)C(Cl)Cl)c3ccnc(-c4cc(-c5c(Cl)cccc5Cl)no4)c3)cc2)CC1` [Cpd. 1023, 2,2-Dichloro-N-(2-(3-(2,6-dichlorophenyl)isoxazol-5-yl)pyridin-4-yl)-N-(4-(4-ethylpiperazin-1-yl)benzyl)acetamide] to `CC(C)(C)OC(=O)N1CCN(c2ccc(CCCN(C(=O)C(Cl)Cl)c3ccnc(-c4cc(-c5c(Cl)cccc5Cl)no4)c3)cc2)CC1` [Cpd. 1039, tert-Butyl 4-(4-(3-(2,2-Dichloro-N-(2-(3-(2,6-dichlorophenyl)isoxazol-5-yl)pyridin-4yl)acetamido)propyl)phenyl)piperazine-1-carboxylate], the IC50 rises from < 1 µM to > 20 µM.

Compared with `CC(C)(C)OC(=O)c1ccc(CN(C(=O)C(Cl)Cl)c2ccnc(-c3cc(-c4c(Cl)cccc4Cl)no3)c2)cc1` [Cpd. 1021, tert-Butyl 4-((2,2-Dichloro-N-(2-(3-(2,6-dichlorophenyl)isoxazol-5-yl)pyridin-4-yl)acetamido)methyl)benzoate], `O=C(C(Cl)Cl)N(CCCc1ccc(CP(=O)(O)O)cc1)c1ccnc(-c2cc(-c3c(Cl)cccc3Cl)no2)c1` [Cpd. 1042, 4-(3-(2,2-Dichloro-N-(2-(3-(2,6-dichlorophenyl)isoxazol-5-yl)pyridin-4-yl)acetamido)propyl)benzylphosphonic Acid] is higher in IC50: 1 to 20 µM for the first, > 20 µM for the second.

`CCCNC(=O)Oc1c(C)cc(CN(C(=O)C(Cl)Cl)c2ccnc(-c3cc(-c4c(Cl)cccc4Cl)no3)c2)cc1C` [Cpd. 1027, 4-((2,2-Dichloro-N-(2-(3-(2,6-dichlorophenyl)isoxazol-5-yl)pyridin4-yl)acetamido)methyl)-2,6-dimethylphenyl Propylcarbamate] gave an IC50 of 1 to 20 µM.
